Laboratory results as given in the kinase profiling compilation of Christmann-Franck et al. (2016).
Several values for one entry are separate records, joined by “and”; a condition that tells them apart may be missing. Identical values can stand only once.

What was measured:
Experiment in all cases: KINOMEscan competition binding
Conditions in all cases: compound 10.0 µM
[1] = molecular target: INSR (human) (UniProt P06213)
[2] = molecular target: MAPK14 (human) (UniProt Q16539)
[3] = molecular target: RPS6KA3 KD1 (human) (UniProt P51812)
[4] = molecular target: CHEK1 (human) (UniProt O14757)
[5] = system: KIT (human), P10721 [A829P]
[6] = molecular target: ROCK1 (human) (UniProt Q13464)
[7] = system: PIK3CA (human), P42336 [M1043I]
[8] = molecular target: PRKD3 (human) (UniProt O94806)
[9] = molecular target: STK39 (human) (UniProt Q9UEW8)
[10] = molecular target: SGK3 (human) (UniProt Q96BR1)
[11] = molecular target: SIK3 (human) (UniProt Q9Y2K2)
[12] = molecular target: TEC (human) (UniProt P42680)
[13] = molecular target: NEK5 (human) (UniProt Q6P3R8)
[14] = molecular target: RET (human) (UniProt P07949)
[15] = molecular target: FLT4 (human) (UniProt P35916)
[16] = molecular target: CAMK2B (human) (UniProt Q13554)
[17] = molecular target: MAPKAPK5 (human) (UniProt Q8IW41)
[18] = molecular target: AKT2 (human) (UniProt P31751)
[19] = molecular target: PRKCE (human) (UniProt Q02156)
[20] = molecular target: ADCK3 (human) (UniProt Q8NI60)
[21] = molecular target: PAK2 (human) (UniProt Q13177)
[22] = molecular target: NEK11 (human) (UniProt Q8NG66)
[23] = molecular target: PIP5K1A (human) (UniProt Q99755)
[24] = molecular target: NEK3 (human) (UniProt P51956)
[25] = molecular target: LIMK2 (human) (UniProt P53671)
[26] = molecular target: CDK17 (human) (UniProt Q00537)
[27] = molecular target: MATK (human) (UniProt P42679)
[28] = molecular target: EPHB2 (human) (UniProt P29323)
[29] = molecular target: MAP3K7 (human) (UniProt O43318)
[30] = molecular target: CDK5 (human) (UniProt Q00535)
[31] = molecular target: CDK4 CCND3 (human) (UniProt P11802+P30281)
[32] = molecular target: EIF2AK1 (human) (UniProt Q9BQI3)
[33] = molecular target: SIK2 (human) (UniProt Q9H0K1)
[34] = molecular target: CDK11B (human) (UniProt P21127)
[35] = molecular target: HIPK2 (human) (UniProt Q9H2X6)
[36] = molecular target: ACVR1 (human) (UniProt Q04771)
[37] = molecular target: CAMK1G (human) (UniProt Q96NX5)
[38] = system: EGFR (human), P00533 [A750P; 747-749 del]
[39] = molecular target: MAP3K9 (human) (UniProt P80192)
[40] = molecular target: LATS1 (human) (UniProt O95835)

Chain of SGK3 (human) (Q96BR1 whole entry, looked up): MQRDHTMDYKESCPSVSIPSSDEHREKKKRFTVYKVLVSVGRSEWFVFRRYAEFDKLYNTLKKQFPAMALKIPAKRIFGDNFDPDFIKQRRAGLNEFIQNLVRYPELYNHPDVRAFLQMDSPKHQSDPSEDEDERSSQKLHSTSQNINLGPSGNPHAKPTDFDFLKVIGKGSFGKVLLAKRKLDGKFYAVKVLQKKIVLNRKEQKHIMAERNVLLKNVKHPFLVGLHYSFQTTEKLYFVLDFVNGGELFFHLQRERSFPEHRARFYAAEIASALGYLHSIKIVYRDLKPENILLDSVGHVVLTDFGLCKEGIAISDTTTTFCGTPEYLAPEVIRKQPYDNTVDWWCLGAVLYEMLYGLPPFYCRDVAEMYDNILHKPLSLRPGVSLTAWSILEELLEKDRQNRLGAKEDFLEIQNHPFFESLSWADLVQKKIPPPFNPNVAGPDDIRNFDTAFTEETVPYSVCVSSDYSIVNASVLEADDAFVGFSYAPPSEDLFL
Chain of NEK3 (human) (P51956 whole entry, looked up): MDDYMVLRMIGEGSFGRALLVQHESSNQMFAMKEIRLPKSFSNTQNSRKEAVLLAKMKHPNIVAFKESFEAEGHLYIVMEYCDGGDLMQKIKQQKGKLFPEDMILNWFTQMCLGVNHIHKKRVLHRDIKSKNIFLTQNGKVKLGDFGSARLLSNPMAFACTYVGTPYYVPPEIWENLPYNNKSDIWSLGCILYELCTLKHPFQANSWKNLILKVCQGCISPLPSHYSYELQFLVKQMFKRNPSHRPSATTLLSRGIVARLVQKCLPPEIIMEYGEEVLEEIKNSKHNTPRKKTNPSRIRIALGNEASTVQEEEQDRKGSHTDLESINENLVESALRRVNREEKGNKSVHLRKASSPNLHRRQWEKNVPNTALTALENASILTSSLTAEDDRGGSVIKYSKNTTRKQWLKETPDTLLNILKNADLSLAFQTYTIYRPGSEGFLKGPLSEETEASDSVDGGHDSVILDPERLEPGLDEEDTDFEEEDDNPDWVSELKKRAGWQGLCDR
Chain of AKT2 (human) (P31751 whole entry, looked up): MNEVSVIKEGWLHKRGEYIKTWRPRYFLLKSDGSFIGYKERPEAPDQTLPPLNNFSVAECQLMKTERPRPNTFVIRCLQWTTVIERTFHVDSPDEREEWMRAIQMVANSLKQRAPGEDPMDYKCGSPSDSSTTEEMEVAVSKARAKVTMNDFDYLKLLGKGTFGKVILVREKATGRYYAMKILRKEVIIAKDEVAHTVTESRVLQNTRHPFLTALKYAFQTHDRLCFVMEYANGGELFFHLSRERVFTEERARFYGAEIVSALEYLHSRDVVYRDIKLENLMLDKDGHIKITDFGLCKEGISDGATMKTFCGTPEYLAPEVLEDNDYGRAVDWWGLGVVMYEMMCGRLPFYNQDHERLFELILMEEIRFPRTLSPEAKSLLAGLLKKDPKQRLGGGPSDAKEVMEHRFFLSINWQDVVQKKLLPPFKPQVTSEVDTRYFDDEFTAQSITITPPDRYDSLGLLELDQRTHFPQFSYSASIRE
Chain of EPHB2 (human) (P29323 whole entry, looked up): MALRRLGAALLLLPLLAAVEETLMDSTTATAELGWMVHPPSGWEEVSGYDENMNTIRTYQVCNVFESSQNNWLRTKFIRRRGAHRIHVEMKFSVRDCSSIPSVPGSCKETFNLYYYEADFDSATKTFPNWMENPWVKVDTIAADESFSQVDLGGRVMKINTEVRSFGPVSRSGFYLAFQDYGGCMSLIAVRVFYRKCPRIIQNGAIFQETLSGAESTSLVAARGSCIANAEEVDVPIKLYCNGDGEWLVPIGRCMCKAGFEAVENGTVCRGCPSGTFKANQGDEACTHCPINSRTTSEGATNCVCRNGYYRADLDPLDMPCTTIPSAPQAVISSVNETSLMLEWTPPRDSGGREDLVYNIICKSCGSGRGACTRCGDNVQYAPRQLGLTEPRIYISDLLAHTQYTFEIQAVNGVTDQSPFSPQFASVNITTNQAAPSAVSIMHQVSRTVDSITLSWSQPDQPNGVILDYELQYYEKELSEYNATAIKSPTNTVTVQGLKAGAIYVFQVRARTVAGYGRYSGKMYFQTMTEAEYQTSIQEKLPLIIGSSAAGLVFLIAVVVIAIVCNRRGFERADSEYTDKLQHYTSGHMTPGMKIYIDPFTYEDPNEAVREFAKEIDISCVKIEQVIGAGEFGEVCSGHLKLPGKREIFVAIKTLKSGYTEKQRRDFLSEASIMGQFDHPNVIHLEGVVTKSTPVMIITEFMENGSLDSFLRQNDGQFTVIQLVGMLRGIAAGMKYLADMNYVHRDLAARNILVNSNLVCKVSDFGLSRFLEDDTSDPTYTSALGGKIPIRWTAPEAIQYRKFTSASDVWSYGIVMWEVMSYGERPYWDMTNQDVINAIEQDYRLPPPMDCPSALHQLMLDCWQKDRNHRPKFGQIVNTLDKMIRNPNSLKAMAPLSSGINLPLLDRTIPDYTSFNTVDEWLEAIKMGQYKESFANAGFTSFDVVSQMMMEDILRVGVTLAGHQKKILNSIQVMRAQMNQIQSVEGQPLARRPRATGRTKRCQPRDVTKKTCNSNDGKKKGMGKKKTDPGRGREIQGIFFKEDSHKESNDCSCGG
Chain of HIPK2 (human) (Q9H2X6 whole entry, looked up): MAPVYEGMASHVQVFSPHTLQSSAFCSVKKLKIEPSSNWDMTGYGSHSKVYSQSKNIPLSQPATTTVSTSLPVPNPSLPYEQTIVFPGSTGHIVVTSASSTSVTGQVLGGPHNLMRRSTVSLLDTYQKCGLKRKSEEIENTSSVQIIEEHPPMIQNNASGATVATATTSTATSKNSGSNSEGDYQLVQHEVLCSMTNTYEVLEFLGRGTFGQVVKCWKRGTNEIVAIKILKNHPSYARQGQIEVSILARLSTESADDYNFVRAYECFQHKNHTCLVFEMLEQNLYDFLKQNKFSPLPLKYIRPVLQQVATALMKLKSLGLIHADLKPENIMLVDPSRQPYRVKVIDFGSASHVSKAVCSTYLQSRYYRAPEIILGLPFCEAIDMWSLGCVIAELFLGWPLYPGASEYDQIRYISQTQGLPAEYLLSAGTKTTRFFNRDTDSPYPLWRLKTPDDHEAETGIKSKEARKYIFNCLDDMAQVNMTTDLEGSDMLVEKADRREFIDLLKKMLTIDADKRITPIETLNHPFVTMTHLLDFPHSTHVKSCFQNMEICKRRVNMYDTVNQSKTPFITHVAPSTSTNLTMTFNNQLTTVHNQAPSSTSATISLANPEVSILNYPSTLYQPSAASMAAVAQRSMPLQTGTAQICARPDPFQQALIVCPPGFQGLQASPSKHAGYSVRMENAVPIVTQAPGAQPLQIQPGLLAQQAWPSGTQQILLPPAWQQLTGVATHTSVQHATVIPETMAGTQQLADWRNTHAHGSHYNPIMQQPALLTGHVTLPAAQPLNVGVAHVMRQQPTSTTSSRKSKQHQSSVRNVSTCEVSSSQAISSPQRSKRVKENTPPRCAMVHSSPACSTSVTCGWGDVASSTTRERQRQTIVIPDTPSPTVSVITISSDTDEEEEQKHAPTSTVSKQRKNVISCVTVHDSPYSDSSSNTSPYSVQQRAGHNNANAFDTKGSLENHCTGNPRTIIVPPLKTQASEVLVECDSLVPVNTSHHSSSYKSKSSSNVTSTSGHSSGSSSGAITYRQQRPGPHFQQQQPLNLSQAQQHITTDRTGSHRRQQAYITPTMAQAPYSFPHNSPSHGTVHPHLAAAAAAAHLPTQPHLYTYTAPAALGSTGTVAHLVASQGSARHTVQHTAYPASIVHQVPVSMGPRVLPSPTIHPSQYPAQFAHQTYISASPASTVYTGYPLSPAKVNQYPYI
Chain of NEK5 (human) (Q6P3R8 whole entry, looked up): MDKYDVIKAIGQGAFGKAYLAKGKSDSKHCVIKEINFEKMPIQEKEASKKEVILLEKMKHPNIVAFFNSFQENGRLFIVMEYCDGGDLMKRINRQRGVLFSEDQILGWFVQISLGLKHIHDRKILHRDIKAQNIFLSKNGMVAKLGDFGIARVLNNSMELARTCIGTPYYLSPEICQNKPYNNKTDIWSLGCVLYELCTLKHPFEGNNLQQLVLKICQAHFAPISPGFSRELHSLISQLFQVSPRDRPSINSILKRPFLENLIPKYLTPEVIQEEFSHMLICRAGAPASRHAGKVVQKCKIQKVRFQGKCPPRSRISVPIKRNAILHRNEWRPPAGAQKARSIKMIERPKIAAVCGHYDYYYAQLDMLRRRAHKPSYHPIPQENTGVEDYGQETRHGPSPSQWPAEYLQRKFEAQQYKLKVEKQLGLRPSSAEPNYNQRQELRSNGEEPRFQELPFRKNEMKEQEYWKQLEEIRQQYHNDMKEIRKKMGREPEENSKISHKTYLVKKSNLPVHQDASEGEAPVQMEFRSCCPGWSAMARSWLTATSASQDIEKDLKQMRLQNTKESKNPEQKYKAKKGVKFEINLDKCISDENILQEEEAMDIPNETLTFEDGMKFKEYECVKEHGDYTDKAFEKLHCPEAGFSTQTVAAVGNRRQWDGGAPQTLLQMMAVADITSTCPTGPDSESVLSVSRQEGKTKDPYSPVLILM
Chain of EIF2AK1 (human) (Q9BQI3 whole entry, looked up): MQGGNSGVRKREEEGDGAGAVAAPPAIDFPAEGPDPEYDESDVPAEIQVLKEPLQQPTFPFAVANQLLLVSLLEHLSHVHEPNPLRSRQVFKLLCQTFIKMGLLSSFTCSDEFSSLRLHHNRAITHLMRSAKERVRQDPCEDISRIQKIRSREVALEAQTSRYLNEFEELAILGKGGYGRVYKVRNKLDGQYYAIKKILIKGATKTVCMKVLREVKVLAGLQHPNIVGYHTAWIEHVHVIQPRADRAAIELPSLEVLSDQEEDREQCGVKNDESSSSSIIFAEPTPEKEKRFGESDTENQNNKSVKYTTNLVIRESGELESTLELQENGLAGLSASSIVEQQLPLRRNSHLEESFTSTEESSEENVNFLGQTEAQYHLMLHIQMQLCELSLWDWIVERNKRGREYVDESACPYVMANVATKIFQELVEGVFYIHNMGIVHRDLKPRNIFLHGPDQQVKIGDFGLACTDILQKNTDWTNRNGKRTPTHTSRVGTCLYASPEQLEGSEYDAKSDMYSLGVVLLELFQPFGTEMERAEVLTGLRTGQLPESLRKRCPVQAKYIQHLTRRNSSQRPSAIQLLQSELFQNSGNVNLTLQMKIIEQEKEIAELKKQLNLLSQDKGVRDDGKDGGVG

Compound	kinase still bound, per cent of control [1] [%]	kinase still bound, per cent of control [2] [%]	kinase still bound, per cent of control [3] [%]	kinase still bound, per cent of control [5] [%]	kinase still bound, per cent of control [6] [%]	kinase still bound, per cent of control [7] [%]	kinase still bound, per cent of control [8] [%]	kinase still bound, per cent of control [9] [%]	kinase still bound, per cent of control [10]	kinase still bound, per cent of control [11] [%]	kinase still bound, per cent of control [12] [%]	kinase still bound, per cent of control [13] [%]	kinase still bound, per cent of control [14] [%]	kinase still bound, per cent of control [15] [%]	kinase still bound, per cent of control [16] [%]	kinase still bound, per cent of control [17] [%]	kinase still bound, per cent of control [18] [%]	kinase still bound, per cent of control [19] [%]	kinase still bound, per cent of control [20] [%]	kinase still bound, per cent of control [21] [%]	also measured
O=c1[nH]c2ccccc2n1C1CCN(Cc2ccc(-c3nc4cc5[nH]cnc5cc4nc3-c3ccccc3)cc2)CC1	64	88	67	100	66	100	100	100	75% and 100%	88	100	97	76	100	86	59	100	100	100	74	kinase still bound, per cent of control [4]: 100%; kinase still bound, per cent of control [22]: 100%; kinase still bound, per cent of control [23]: 88%; kinase still bound, per cent of control [24]: 84%; kinase still bound, per cent of control [25]: 100%; kinase still bound, per cent of control [26]: 100%; kinase still bound, per cent of control [27]: 70%; kinase still bound, per cent of control [28]: 72%; kinase still bound, per cent of control [29]: 85%; kinase still bound, per cent of control [30]: 100%; kinase still bound, per cent of control [31]: 100%; kinase still bound, per cent of control [32]: 87%; kinase still bound, per cent of control [33]: 85%; kinase still bound, per cent of control [34]: 97%; kinase still bound, per cent of control [35]: 88%; kinase still bound, per cent of control [36]: 92%; kinase still bound, per cent of control [37]: 90%; kinase still bound, per cent of control [38]: 77%; kinase still bound, per cent of control [39]: 96%; kinase still bound, per cent of control [40]: 93%
CCN(CCO)CCCOc1ccc2c(Nc3cc(CC(=O)Nc4cccc(F)c4)[nH]n3)ncnc2c1	75	100	80	50	67	100	63	100	100%	100	78	100	0.25	38	84	100	90	100	85	100	kinase still bound, per cent of control [22]: 98%; kinase still bound, per cent of control [23]: 73%; kinase still bound, per cent of control [24]: 100%; kinase still bound, per cent of control [25]: 100%; kinase still bound, per cent of control [26]: 73%; kinase still bound, per cent of control [27]: 71%; kinase still bound, per cent of control [28]: 93%; kinase still bound, per cent of control [29]: 16%; kinase still bound, per cent of control [30]: 100%; kinase still bound, per cent of control [31]: 100%; kinase still bound, per cent of control [32]: 5.2%; kinase still bound, per cent of control [33]: 70%; kinase still bound, per cent of control [34]: 6.5%; kinase still bound, per cent of control [35]: 31%; kinase still bound, per cent of control [36]: 81%; kinase still bound, per cent of control [37]: 73%; kinase still bound, per cent of control [39]: 98%; kinase still bound, per cent of control [40]: 100%
